Measured values: patent US12264163B2, “Compounds and methods for treating fibrotic pathologies” (Mayo Foundation for Medical Education and Research, priority 2019, dated 2025)
Where a name gives a salt, the structure may show the parent alone. Read-outs that look alike come from different tables or passages of the source.

What was measured:
[1] = cited from earlier work
αSMA [2] = assay: αSMA intensity (fibroblast activation) in IPF patient-derived lung fibroblasts + TGFβ, dopaminergic agonist library; assay type: cell-based, human; conditions: Homo sapiens, SMA, 72 h, 1 μM + TGFβ, read-out: αSMA intensity (% of DMSO control)
Procedure: Media was then exchanged for the indicated conditions for each experiment. […] Cells or tissue sections were incubated overnight with mouse monoclonal antibody against αSMA (Sigma-Aldrich F3777), and/or a rabbit monoclonal antibody against YAP/TAZ (Cell Signaling D24E4) diluted 1:200 in PBS with 1% BSA. Cells were then washed and exposed to flourescence-conjugated secondary antibodies (Invitrogen) diluted 1:1000 and DAPI (Thermo Fisher Scientific). Images were taken with a Cytation5 (BioTek) microscope. For scoring αSMA positive cells (FIG. 12), an observer blinded to the treatment conditions counted αSMA-positive cells using a visual threshold for bright fibrous staining; a minimum of 200 cells was counted for each condition. YAP/TAZ localization was quantified (FIGS. 6-10, 24-26, and 29-30) using Gen5 (Biotek) software. Images were taken at 4× magnification of both DAPI and YAP/TAZ staining. […] Quantification of double positive (YAP/TAZ and αSMA) cells from lung tissue sections (FIG. 17-21) was performed similarly; however separate thresholds were established for both YAP/TAZ and αSMA. A minimum of 4000 cells was quantified for each mouse.

YAP/TAZ [3] = assay: YAP/TAZ nuclear localization in IPF patient-derived lung fibroblasts treated with dopaminergic agonists; assay type: cell-based, human; conditions: 10 μM, 2 hours
How it was run: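 Fibroblasts from IPF patients (N=4 patient samples) were exposed to dopaminergic agonists at 10 μM for 2 h before fixation. Cells were immunostained for YAP/TAZ with DAPI counterstain and imaged at 4×. Percent nuclear YAP/TAZ localization was quantified by automated image analysis.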

αSMA [4] = assay: Fibroblast activation: αSMA intensity in TGFβ-stimulated adult lung fibroblasts; assay type: cell-based; conditions: Homo sapiens, SMA, 2 ng/mL TGFβ 96 hours, compound every 48 hours
Procedure: (§1) FIG. 70 contains a line plot showing that compound CTC-3 inhibits fibroblast activation. Adult lung fibroblasts plated into 96-well plates, stimulated with 2 ng/mL TGFβ for 96 hours and treated with the indicated concentration of compounds every 48 hours. Imaging and quantification of αSMA intensity performed through automation using a Cytation 5. (IC50 is 0.3 μM).
as §1, with “71” for “70”, “CTC-6” for “CTC-3”, “5.” for “5. (IC50 is 0.3 μM).”
as §1, with “91A” for “70”, “1” for “CTC-3”, “5.” for “5. (IC50 is 0.3 μM).”
Alpha-smooth muscle actin (αSMA) staining is a well-defined marker of fibroblast activation observed in wound healing and tissue fibrosis. […] Imaging and quantification of αSMA intensity performed through automation using a Cytation 5.

Collagen I = Collagen I deposition by TGFβ-stimulated adult lung fibroblasts (LI-COR Odyssey); assay type: cell-based; conditions: Homo sapiens, Fibroblast, 2 ng/mL TGFβ 96 hours, compound every 48 hours
Procedure: as §1, with “72” for “70”, “Collagen I deposition.” for “fibroblast activation.”, “Collagen I” for “αSMA”, “LI-COR Odyssey.” for “Cytation 5. (IC50 is 0.3 μM).”
as §1, with “73” for “70”, “CTC-6” for “CTC-3”, “Collagen I deposition.” for “fibroblast activation.”, “Collagen I” for “αSMA”, “LI-COR Odyssey.” for “Cytation 5.”, “0.4” for “0.3”
as §1, with “91B” for “70”, “1” for “CTC-3”, “Collagen I deposition.” for “fibroblast activation.”, “Collagen I” for “αSMA”, “LI-COR Odyssey.” for “Cytation 5. (IC50 is 0.3 μM).”
Imaging and quantification of collagen I intensity performed through automation using a LI-COR Odyssey.

lung fibroblasts = assay: Fibroblast proliferation (counting DAPI nuclei); assay type: cell-based, human; conditions: adult lung fibroblasts, 2 ng/mL TGFβ, DAPI nuclei count
Procedure: IPF fibroblast and Normal lung fibroblast co-culture proliferation. Cell are prelabelled with fluorescent dyes (red and green) and then cocultured at a ratio of about 1:1 in 96 well plates. Cell counts are determined every 24 hours and plotted as a ratio of IPF/HLF cells. In the control wells the IPF cells outgrow and take over the well. N=2.
Proliferation of lung fibroblasts (IMR-90 cells) measured for 4 days in the presence of GPCR agonists ET-1 (100 nM) and LPA (10 μM)+/−10 μM DHX. Cells were fixed and counted with DAPI at the end of each day. N=3 technical triplicates.
Adult lung fibroblasts plated into 96-well plates, stimulated with 2 ng/mL TGFβ and compounds at the indicated concentration. Proliferation determined by fixing and counting DAPI nuclei using a Cytation 5. N=2.
Fibroblasts were stimulated with 2 ng/mL TGFβ and treated with compound 1 (MS-9) at the indicated concentration (0.1 μM, 1 μM, and 10 μM). Proliferation determined by fixing and counting DAPI nuclei using a Cytation.

YAP/TAZ [5] = assay: YAP/TAZ nuclear localization in adult lung fibroblasts, dose response (Cytation 5); assay type: cell-based; conditions: Homo sapiens, Fibroblast, 2 h, adult lung fibroblasts sparsely plated, treated 2 hours; read-out: IC50, inhibition of YAP/TAZ nuclear localization
Procedure: Adult lung fibroblasts (N=2) sparsely plated into 96-well plates. Treated for 2 hours with compounds prior to fixing and immunostaining for YAP/TAZ.
(§2) Immunofluorescence Microscopy: Cells were plated into 96 well plates (Corning 3603) in their specific growth media and allowed to attach (8 hours). Media was then exchanged for the indicated conditions for each experiment. Cells were fixed in 3.7% formalin (Sigma-Aldrich), permeabilized in 0.25% Triton X-100 (Sigma-Aldrich) and then blocked with 1% BSA for 1 h. Cells or tissue sections were incubated overnight with mouse monoclonal antibody against αSMA (Sigma-Aldrich F3777), and/or a rabbit monoclonal antibody against YAP/TAZ (Cell Signaling D24E4) diluted 1:200 in PBS with 1% BSA. Cells were then washed and exposed to flourescence-conjugated secondary antibodies (Invitrogen) diluted 1:1000 and DAPI (Thermo Fisher Scientific). Images were taken with a Cytation5 (BioTek) microscope. For scoring αSMA positive cells (FIG. 12), an observer blinded to the treatment conditions counted αSMA-positive cells using a visual threshold for bright fibrous staining; a minimum of 200 cells was counted for each condition. YAP/TAZ localization was quantified (FIGS. 6-10, 24-26, and 29-30) using Gen5 (Biotek) software. Images were taken at 4× magnification of both DAPI and YAP/TAZ staining. […] Quantification of double positive (YAP/TAZ and αSMA) cells from lung tissue sections (FIG. 17-21) was performed similarly; however separate thresholds were established for both YAP/TAZ and αSMA. A minimum of 4000 cells was quantified for each mouse.

YAP/TAZ [6] = assay: YAP/TAZ nuclear localization in IMR-90 and other fibroblasts / mesenchymal cells (immunofluorescence); assay type: cell-based, human; conditions: fibroblasts / mesenchymal cells on plastic, 2 hours
Procedure: Selective agonists of dopamine receptor D1 with varying efficacy inhibit YAP/TAZ nuclear localization; this effect can be overcome by treatment with a DRD1 receptor antagonist (SCH 39166, 3 μM), (Dihydrexidine, 10 μM). IMR-90 cells treated 2 hours prior to fixation. N=4 (****p<0.0001 vs. 0.10% DMSO vehicle control). Scale bar represents 100 μm.
In each case DHX treatment (10 μM) can reverse this effect on YAP/TAZ. IMR-90 cells plated densely onto plastic cell culture plates for 24 hours in media containing 0.1% FBS, treated for 2 hours prior to fixation. N=4 (****p<0.0001 vs. 0.1% DMSO vehicle control), (++++p<0.0001 vs. the respective stimulated agonist ET-1, LPA, or 5-HT). Scale bar represents 100 μm.
Mesenchymal cells derived from lung (IMR-90 and IPF-FBs) hepatic stellate cells (HSC), human adult cardiac fibroblasts, (HACF) and human dermal fibroblasts (HDF) were plated densely (Confluent) or sparsely (Control and all remaining conditions) onto plastic cell culture plates for 24 hours in media containing 0.10% FBS, treated for 2 hours with Rho kinase inhibitor Y27632, adenylate cyclase activator forskolin and DHX. N=4, Cells that were positive for nuclear YAP/TAZ were quantified by automated image analysis.
as §2

Structure (SMILES)	oxidation / stability at physiological pH [1]	activity at 1 µM (αSMA [2]; IPF-1 patient fibroblasts) [%]	activity at 1 µM (αSMA [2]; IPF-2 patient fibroblasts) [%]	activity at 1 µM (αSMA [2]; IPF-3 patient fibroblasts) [%]	activity at 1 µM (αSMA [2]; IPF-4 patient fibroblasts) [%]	Nuclear localization (% of total cells) (YAP/TAZ [3]; IPF-1 patient fibroblasts)	Nuclear localization (% of total cells) (YAP/TAZ [3]; IPF-2 patient fibroblasts)	Nuclear localization (% of total cells) (YAP/TAZ [3]; IPF-3 patient fibroblasts)	Nuclear localization (% of total cells) (YAP/TAZ [3]; IPF-4 patient fibroblasts)	IC50 (αSMA [4]) [nM]	IC50 (Collagen I) [nM]	fibroblast proliferation (lung fibroblasts)	IC50 (YAP/TAZ [5]) [nM]	YAP/TAZ nuclear localization (YAP/TAZ [6])
CN1CCc2cccc3c2[C@H]1Cc1ccc(O)c(O)c1-3 [(R)-(−)-Apomorphine•HCl, (R)-(−)-Apomorphine]	oxidized into the inactive quinone	7.07	1.17	0.962	33.7	29.21 % of total cells	31.97 % of total cells	27.47 % of total cells	17.86 % of total cells	–	–	–	–	–
NCC1OC(C2CCOCC2)Cc2c1ccc(O)c2O (stereo not shown) [CTC-3]	–	–	–	–	–	–	–	–	–	300	700	inhibits fibroblast proliferation	–	–
NCC1OC(c2ccncc2)Cc2c1ccc(O)c2O (stereo not shown) [CTC-6]	–	–	–	–	–	–	–	–	–	100	400	inhibits fibroblast proliferation	62	–
Oc1ccc(C2CNCCc3c2cc(O)c(O)c3Cl)cc1 (stereo not shown) [Fenoldopam•HCl, Fenoldopam]	stable at physiological pH	–	–	–	–	68.1 % of total cells	50.32 % of total cells	66.64 % of total cells	63 % of total cells	–	–	–	–	reduced nuclear localization of YAP/TAZ
